Measurements as given in ChEMBL document CHEMBL1201862, “PubChem BioAssay data set” (2004).
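Assay format: 96-well plates, 48-hour exposure. GI50 is the concentration that inhibits growth by half.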 Calls of active or inactive are those of the source. Cut-off read from the data, not from the text of the source: active = GI50 up to about 1.1 µM and inactive = higher.

Experiments:
Assay in all cases: NCI-60 cell line screen, 48 h
T47D = system: T47D
EKVX = system: EKVX
SW-620 = system: SW-620
SK-MEL-2 = system: SK-MEL-2
ACHN = system: ACHN
HT-29 = system: HT-29
A549 = system: A549
NCI-H460 = system: NCI-H460
UACC-62 = system: UACC-62
COLO 205 = system: COLO 205
CCRF-CEM = system: CCRF-CEM
OVCAR-8 = system: OVCAR-8
SF-268 = system: SF-268
DU-145 = system: DU-145
PC-3 = system: PC-3
U-251 = system: U-251
OVCAR-5 = system: OVCAR-5
NCI/ADR-RES = system: NCI/ADR-RES
RXF 393 = system: RXF 393
NCI-H226 = system: NCI-H226

Measured: GI50

O=C(Nc1cccc2ccccc12)c1ccccc1
inactive: T47D 11.5 µM | EKVX > 100 µM | SW-620 34.4 µM | SK-MEL-2 91.2 µM | ACHN > 100 µM | HT-29 47.5 µM | A549 > 100 µM | NCI-H460 > 100 µM | UACC-62 86.7 µM | COLO 205 97.7 µM | CCRF-CEM 27.1 µM | OVCAR-8 > 100 µM | SF-268 > 100 µM | DU-145 > 100 µM | PC-3 72.3 µM | U-251 > 100 µM | OVCAR-5 > 100 µM | NCI/ADR-RES > 100 µM | RXF 393 26.7 µM | NCI-H226 > 100 µM

C[N+](C)(C)CCCCCc1c2nc(c(CCCCC[N+](C)(C)C)c3ccc([nH]3)c(CCCCC[N+](C)(C)C)c3nc(c(CCCCC[N+](C)(C)C)c4ccc1[nH]4)C=C3)C=C2
inactive: T47D > 100 µM | EKVX 99.8 µM | SW-620 > 100 µM | SK-MEL-2 > 100 µM | ACHN > 100 µM | HT-29 > 100 µM | A549 87.9 µM | NCI-H460 67.3 µM | UACC-62 > 100 µM | COLO 205 > 100 µM | CCRF-CEM > 100 µM | OVCAR-8 > 100 µM | SF-268 > 100 µM | DU-145 > 100 µM | PC-3 > 100 µM | U-251 > 100 µM | OVCAR-5 > 100 µM | NCI/ADR-RES > 100 µM | RXF 393 2.77 µM | NCI-H226 > 100 µM

CC1=NN=C(N)N/C1=C\C(Sc1ccc(Cl)cc1)c1ccc(Cl)cc1Cl (stereo not given)
inactive: T47D 14.2 µM | EKVX 13.2 µM | SW-620 17.2 µM | SK-MEL-2 16.4 µM | ACHN 14.2 µM | HT-29 3.59 µM | A549 8.34 µM | NCI-H460 8.77 µM | UACC-62 14.7 µM | COLO 205 18.9 µM | CCRF-CEM 2.33 µM | OVCAR-8 13.5 µM | SF-268 12.6 µM | DU-145 19.3 µM | PC-3 11.6 µM | U-251 14.2 µM | OVCAR-5 15.9 µM | NCI/ADR-RES 17.6 µM | RXF 393 16.3 µM | NCI-H226 15.1 µM
